# System: SEM cells
# Test: cell viability relative to DMSO control; higher = less cytotoxic
# Settings: 48 h
# In short: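 Viability values are per-plate percentages of DMSO wells, with background from cell-free wells. Library compounds in DMSO were pin-dosed, in an 11-point threefold series from 47 μM to 0.79 nM, onto NOMO1 or SEM (500 cells/well) or P12-Ichikawa (1000 cells/well) leukemia cells in 1536-well plates (5 μl). Those cells had been adapted for at least four passages in each medium, and CellTiter-Glo One luminescence was read after 48 h at 37°C.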
# [1] = HPLM + 10% dialyzed FBS, 0.000781 µM
# [2] = HPLM + 10% dialyzed FBS, 0.00234 µM
# [3] = HPLM + 10% dialyzed FBS, 0.00702 µM
# [4] = HPLM + 10% dialyzed FBS, 0.0211 µM
# [5] = HPLM + 10% dialyzed FBS, 0.0632 µM
# [6] = HPLM + 10% dialyzed FBS, 0.19 µM
# [7] = HPLM + 10% dialyzed FBS, 0.569 µM
# [8] = HPLM + 10% dialyzed FBS, 1.71 µM
# [9] = HPLM + 10% dialyzed FBS, 5.12 µM
# [10] = HPLM + 10% dialyzed FBS, 15.4 µM
# [11] = HPLM + 10% dialyzed FBS, 46.1 µM
# [12] = RPMI 5 mM glucose + 10% FBS, 0.000781 µM
# [13] = RPMI 5 mM glucose + 10% FBS, 0.00234 µM
# [14] = RPMI 5 mM glucose + 10% FBS, 0.00702 µM
# [15] = RPMI 5 mM glucose + 10% FBS, 0.0211 µM
# [16] = RPMI 5 mM glucose + 10% FBS, 0.0632 µM
# [17] = RPMI 5 mM glucose + 10% FBS, 0.19 µM
# [18] = RPMI 5 mM glucose + 10% FBS, 0.569 µM
# [19] = RPMI 5 mM glucose + 10% FBS, 1.71 µM
# [20] = RPMI 5 mM glucose + 10% FBS, 5.12 µM
# [21] = RPMI 5 mM glucose + 10% FBS, 15.4 µM
# [22] = RPMI 5 mM glucose + 10% FBS, 46.1 µM
# [23] = RPMI 5 mM glucose + 10% dialyzed FBS, 0.000781 µM
# [24] = RPMI 5 mM glucose + 10% dialyzed FBS, 0.00234 µM
# [25] = RPMI 5 mM glucose + 10% dialyzed FBS, 0.00702 µM
# [26] = RPMI 5 mM glucose + 10% dialyzed FBS, 0.0211 µM
# [27] = RPMI 5 mM glucose + 10% dialyzed FBS, 0.0632 µM
# [28] = RPMI 5 mM glucose + 10% dialyzed FBS, 0.19 µM
# [29] = RPMI 5 mM glucose + 10% dialyzed FBS, 0.569 µM
# [30] = RPMI 5 mM glucose + 10% dialyzed FBS, 1.71 µM
# [31] = RPMI 5 mM glucose + 10% dialyzed FBS, 5.12 µM
# [32] = RPMI 5 mM glucose + 10% dialyzed FBS, 15.4 µM
# [33] = RPMI 5 mM glucose + 10% dialyzed FBS, 46.1 µM
Structure (SMILES),cell viability [1] [%],cell viability [2] [%],cell viability [3] [%],cell viability [4] [%],cell viability [5] [%],cell viability [6] [%],cell viability [7] [%],cell viability [8] [%],cell viability [9] [%],cell viability [10] [%],cell viability [11] [%],cell viability [12] [%],cell viability [13] [%],cell viability [14] [%],cell viability [15] [%],cell viability [16] [%],cell viability [17] [%],cell viability [18] [%],cell viability [19] [%],cell viability [20] [%],cell viability [21] [%],cell viability [22] [%],cell viability [23] [%],cell viability [24] [%],cell viability [25] [%],cell viability [26] [%],cell viability [27] [%],cell viability [28] [%],cell viability [29] [%],cell viability [30] [%],cell viability [31] [%],cell viability [32] [%],cell viability [33] [%]
OC[C@H]1OC(O)C[C@@H](O)[C@@H]1O (stereo partly drawn),83.6,32.6,104,99.5,92.4,96,92.8,101,101,97.8,97.9,95.6,26.8,118,116,114,115,118,125,109,136,127,97.6,37.5,116,104,118,113,120,120,109,116,119
C/C1=C/C(=C(/CNC(=O)C2=CC(=CC3=C2C=N[N]3C4CCCC4)C5=CC=C(CN6CCOCC6)C=C5)C(=O)N1)C,113,122,126,23.4,117,127,115,115,113,106,7.3,97.8,103,116,18.1,106,96.5,83.4,93.2,92,67.5,4.27,116,124,132,22.7,130,122,118,129,128,126,6.82
CCC[C@H](Nc1nc(-c2ccc(NC(=O)NCC)c(OC)c2)ncc1C)c1cccnc1,87.7,108,94,112,27.2,28.4,26.7,19.4,12.9,13.1,10.7,4.71,78.8,84.3,114,16.5,21,17.2,10.4,6.57,6.69,3.95,102,105,87.1,134,23.6,23.7,24.9,10.9,7.58,7.31,4.35
Cc1nc(-c2ccc(-c3ccc(C(=O)N4CCc5cc6c(cc54)C4(CCN(C)CC4)CO6)cc3)c(C)c2)no1,88.4,104,108,106,119,97.4,114,108,117,136,123,114,102,107,105,99.3,112,114,101,117,107,113,108,99.7,103,95.4,92.5,96,104,96.5,92.8,100,103
Nc1cc(N2CCCCC2)nc(N)[n+]1[O-],98.9,122,115,112,124,120,121,75.6,124,61.5,127,100,125,108,110,106,116,121,78.9,122,58.2,120,115,132,114,116,120,129,108,79.8,135,83.9,133
CN(C)C(=O)[C@H](O)[C@H](Cc1ccccc1)NC(=O)c1cc2cc(Cl)ccc2[nH]1,98.5,109,107,118,122,119,109,86.1,14,11.2,7.62,95.8,80.9,81.7,86.3,108,94.6,104,81.2,14,8.95,6.87,85.2,108,105,100,111,105,105,77.9,18.8,8.36,6.18
CC(O)(C[S+](=O)([O-])c1ccc(F)cc1)C(=O)Nc1ccc(C#N)c(C(F)(F)F)c1 (stereo not drawn),86.8,96.4,91,80.3,85.2,96.2,96.2,93.5,97.4,83.2,73.9,84.9,83.6,98,87,88.7,103,96.3,96.5,91.8,76.8,62.9,87.2,84.4,98.1,94.8,80,102,86.8,102,99.1,72.3,55
N#CC1(c2cccc(C(=O)Nc3cc(Oc4ccc5nc(NC(=O)C6CC6)sc5n4)ccc3F)c2Cl)CC1,93.5,95.8,106,93.9,117,118,102,94.9,82.1,46.7,30.6,75.1,89,90.5,74.5,84.1,68.2,74.5,59.1,39.4,17.4,17.6,101,106,106,105,105,102,108,83.2,69.6,37.1,26.3
CC(C)[C@H]1C(=O)N[C@H](CO)Cc2c[nH]c3cccc(c23)N1C,82.3,78.3,90.7,105,114,75.6,85.6,78.9,57.9,64.7,76.6,83,74,91.9,114,99.1,78.3,92.3,74.2,47.9,50.2,61.3,89.7,90.8,99.7,114,102,80.6,104,104,67.1,74.1,88.4
Nc1nccc(-c2ccc3noc(-c4ccc(Cl)cc4)c3c2)n1,,,,,,,,,,,,98.5,103,99.3,102,93.9,116,112,104,89.1,88.9,92.7,118,119,119,119,104,115,126,119,108,114,108
Cc1cccc(-c2[nH]c(C(C)(C)C)nc2-c2ccc3nccnc3c2)n1,121,121,120,131,123,125,124,121,117,97.7,11.1,95.9,85.8,89.7,95.9,91.2,81.1,89,67.9,82,64.9,6.89,,,,,,,,,,,
CC(C)(Sc1cc(C(C)(C)C)c(O)c(C(C)(C)C)c1)Sc1cc(C(C)(C)C)c(O)c(C(C)(C)C)c1,73.2,89.8,60,90.9,91.2,91.9,84.2,81.4,46.4,89.1,90,90,94.6,67,96.1,80.7,103,91.3,84.1,49.1,95.4,105,79,81.5,76.7,97.7,86.1,94.5,90.2,89.3,54.4,89.1,104
CC1=CC/2=C(C=C1C)N(C[C@@H](O)[C@@H](O)[C@@H](O)CO)C/3=N/C(=O)NC(=O)C3=N2,117,122,126,118,113,117,129,116,115,127,105,85.8,98.8,86.8,98.6,93.3,97.8,92.3,77.9,77.5,90.3,85.5,110,127,107,106,110,107,118,113,117,129,102
COc1cc2c(cc1OC)CN(CCc1ccc(NC(=O)c3cccc4c(=O)c5cccc(OC)c5[nH]c34)cc1)CC2,84.4,98.8,103,105,106,109,105,105,36.4,8.23,5.66,91.1,85.9,82.9,90.8,77.2,83.5,85.2,9.76,8.45,5.57,4.07,108,112,104,112,122,116,94.3,24.4,11.2,5.96,3.77
C[S+](=O)([O-])N1CCN(Cc2cc3nc(-c4cccc5[nH]ncc45)nc(N4CCOCC4)c3s2)CC1,97.5,121,116,111,103,92.4,82,74.9,56.9,31.7,12.9,106,121,129,105,112,108,89,67.4,46.6,23.2,8.22,115,122,129,127,110,106,78.6,78,57,42.6,16

# — the supplement of paper PMC11451515
